Patent publication US10294202B2, “Pyrrolidinones as herbicides” (FMC Corporation, priority 2013, dated 2019)

Columns and labels:
[1] = test system: crabgrass, large; experiment: Test C pre-/postemergence herbicide test; type: in vivo, Digitaria sanguinalis; conditions: Preemergence; for Crabgrass, Large plant response rating: 31 g ai/ha
How it was run: (§1)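 Pre-emergence: seeds sown in loam/sand blend and treated with compound in surfactant-containing solvent. Post-emergence: plants at 2–18 cm (1- to 4-leaf stage) in peat-based medium sprayed with the same formulation. Visual rating versus controls after 13–15 days in greenhouse, scale 0 (no effect) to 100 (complete control).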

[2] = test system: soybean; experiment: Test C pre-/postemergence herbicide test; type: in vivo, Glycine max; conditions: Preemergence
How it was run: as §1

[3] = test system: ducksalad; experiment: Test B flooded paddy test; type: in vivo, Heteranthera limosa; conditions: 250 g ai/ha, Flood; scale of 0 to 100 where 0 is no effect and 100 is complete control
How it was run: (§2)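 Plants were grown to the 2-leaf stage, then pots were flooded to 3 cm above the soil and compound was applied directly into the paddy water, with that depth held throughout. After 13 to 15 days in a greenhouse, injury was rated visually against untreated controls on a 0 to 100 scale (100 = complete control).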

[4] = test system: rice; experiment: Test B flooded paddy test; type: in vivo, Oryza sativa; conditions: 250 g ai/ha, Flood; scale of 0 to 100 where 0 is no effect and 100 is complete control
How it was run: as §2

[5] = test system: ryegrass, Italian; experiment: Test C pre-/postemergence herbicide test; type: in vivo, Lolium multiflorum; conditions: Preemergence
How it was run: as §1

[6] = test system: barnyardgrass; experiment: Test B flooded paddy test; type: in vivo, Echinochloa crus-galli; conditions: 250 g ai/ha, Flood; scale of 0 to 100 where 0 is no effect and 100 is complete control
How it was run: as §2

[7] = test system: velvetleaf; experiment: Test C pre-/postemergence herbicide test; type: in vivo, Abutilon theophrasti; conditions: Preemergence
How it was run: as §1

[8] = test system: blackgrass; experiment: Test C pre-/postemergence herbicide test; type: in vivo, Alopecurus myosuroides; conditions: Preemergence; for Blackgrass plant response rating: 31 g ai/ha
How it was run: as §1

[9] = test system: corn; experiment: Test A pre-/postemergence herbicide test; type: in vivo, Zea mays; conditions: for Corn plant response rating: Preemergence, visual rating on 0 to 100 scale (0 no effect, 100 complete control)
How it was run: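 Seeds in loam–sand blend received preemergence directed soil spray; separately, plants 2–10 cm at one- to two-leaf stage received postemergence spray, both with test chemicals in non-phytotoxic solvent with surfactant. After ~10 days in greenhouse, injury rated visually against untreated controls, 0 (no effect) to 100 (complete control).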

[10] = test system: sedge, umbrella; experiment: Test B flooded paddy test; type: in vivo, Cyperus difformis; conditions: 250 g ai/ha, Flood; scale of 0 to 100 where 0 is no effect and 100 is complete control
How it was run: as §2

[11] = scale 0 to 100 (0 no effect, 100 complete control)
[12] = 125 g ai/ha, scale 0 to 100 (0 no effect, 100 complete control)
[13] = 250 g ai/ha, scale 0 to 100 (0 no effect, 100 complete control)
[14] = Postemergence, 125 g ai/ha, 0 to 100 scale, 0 no effect, 100 complete control
[15] = Postemergence, 500 g ai/ha, 0 to 100 scale (0 no effect, 100 complete control)
[16] = preemergence, 500 g ai/ha, 0 to 100 scale

Structure (SMILES)	Crabgrass, Large plant response rating [1, 11]	Plant response rating, Crabgrass, Large ([1]; 62 g ai/ha, scale 0 to 100)	Plant response rating, Crabgrass, Large [1, 12]	Plant response rating, Crabgrass, Large [1, 13]	Plant response rating, Soybean ([2]; 62 g ai/ha, scale 0 to 100)	Plant response rating, Soybean [2, 12]	Plant response rating, Ducksalad [3]	Plant response rating, Rice [4]	Plant response rating, Ryegrass, Italian ([5]; 62 g ai/ha, scale 0 to 100)	Plant response rating, Ryegrass, Italian [5, 12]	Plant response rating, Barnyardgrass [6]	Plant response rating, Velvetleaf ([7]; 62 g ai/ha, scale 0 to 100)	Plant response rating, Velvetleaf [7, 12]	Blackgrass plant response rating [8, 11]	Plant response rating, Blackgrass ([8]; 62 g ai/ha, scale 0 to 100)	Plant response rating, Blackgrass [8, 12]	Plant response rating, Blackgrass [8, 13]	Plant response rating, Corn [9, 14]	Plant response rating, Corn [9, 15]	Corn plant response rating ([9]; 125 g ai/ha)	other results
O=C1NCC(c2ccc(Cl)c(F)c2)C1C(=O)Nc1ccccc1F (stereo not drawn) [Compound 53]	80	85	90	90	15	15	100	0	0	0	0	0	0	0	0	0	0	0	0	0	Plant response rating, Corn [9, 16]: 0; Plant response rating, Sedge, Umbrella [10]: 20
O=C1NCC(c2ccc(F)c(Cl)c2)C1C(=O)Nc1cccc(F)c1F (stereo not drawn) [Compound 59]	85	85	90	100	15	20	75	20	0	0	40	0	0	0	0	30	60	0	30	0	Plant response rating, Corn [9, 16]: 0; Plant response rating, Sedge, Umbrella [10]: 60
O=C1NCC(c2cccc(Br)c2)C1C(=O)Nc1cccc(F)c1F (stereo not drawn) [Compound 64]	85	90	95	95	35	40	80	15	0	0	0	10	10	0	5	5	30	30	40	20	Plant response rating, Corn [9, 16]: 20; Plant response rating, Sedge, Umbrella [10]: 40
